Laboratory results: paper PMC11911254 (Pharmacological Reports, 2025)

How the values were obtained:
[1] = Concentration of paracetamol and its metabolites in plasma, CSF and brain cortex by LC-MS/MS; settings: for concentration at 30 min: Sprague Dawley, rat; for Concentration in plasma / Concentration in brain: individual values if <3 samples
Protocol: Drug injection protocol is illustrated in Fig. 1.
Male and female postnatal P4 pups and 7–8 week-old non-pregnant females were used. […] In combination therapy experiments, this dose was accompanied by one of the 7 other drugs (Table 1). For all experiments, animals were terminally anesthetized 30 min after the drug injection using inhaled isoflurane (IsoFlo 100% w/w, Abbott Laboratories), and blood, CSF, and brain samples were collected. Blood was collected directly from the right cardiac ventricle, CSF from the cisterna magna, and cortical brain samples from the frontal/parietal lobes dorsal to the lateral ventricles as described previously.
Pregnant E19 dams were anesthetized with ip urethane injection (25% w/v urethane, Sigma, 1 ml/100 g body weight) and placed on a 39 °C heating pad in the supine position. An endotracheal catheter was inserted to maintain a clear airway. Catheters were inserted into the femoral vein and artery for iv drug administration and arterial blood sampling respectively. The cannula was flushed with 0.5 ml of heparinized saline (Hospira Inc, 5,000 units/ml) after drug administration and following each arterial blood sample. Following drug administration to the dams, fetuses were exteriorized and serially collected starting at 30 min post-maternal injection. […] At collection, the viability of each fetus was assessed (presence of a heartbeat, the colour of the umbilical vessels) and blood, CSF, and brain samples were taken along with a time-matched maternal blood sample from the femoral artery. At the end of the experiment, a final maternal blood sample was taken directly from the left cardiac ventricle, and CSF and brain samples were collected.
This method has been described previously for valproate, lamotrigine, and olanzapine and was applied in the present study. Simultaneous quantification was performed for all compounds in plasma, brain, and CSF samples following the addition of respective stable isotope-labeled internal standards.
Linear response range was determined in untreated control rat plasma for each compound at 0.1, 1, 10, 50, 100, 200, 400, and 800 µg/ml.

[2] = parameters: method as in PMID 7288602; settings: rats; single dose of 15 mg/kg; cited from earlier work
[3] = non-pregnant adult rats, 30 min after ip paracetamol 15 mg/kg + lamotrigine 6 mg/kg (PARA+LTG, n=3), median (IQR)

concentration at 30 min ([1]; both, brain cortex, intraperitoneal, Concentration in brain, P4 rats, 30 min after ip paracetamol 15 mg/kg + digoxin 0.03 mg/kg (PARA+DIG, n=4), median (IQR)): 10300 ng/mL
concentration at 30 min ([1]; both, brain cortex, intraperitoneal, Concentration in brain, P4 rats, 30 min after ip paracetamol 15 mg/kg + fluvoxamine 1.5 mg/kg (PARA+FLX, n=4), median (IQR) or individual values): 8700 ng/mL
concentration at 30 min ([1]; both, brain cortex, intraperitoneal, Concentration in brain, P4 rats, 30 min after ip paracetamol 15 mg/kg + lamotrigine 6 mg/kg (PARA+LTG, n=5), median (IQR)): 9900 ng/mL
concentration at 30 min ([1]; both, brain cortex, intraperitoneal, Concentration in brain, P4 rats, 30 min after ip paracetamol 15 mg/kg + lithium 3.2 mg/kg (PARA+Li, n=4), median (IQR)): 7600 ng/mL
concentration at 30 min ([1]; both, brain cortex, intraperitoneal, Concentration in brain, P4 rats, 30 min after ip paracetamol 15 mg/kg + olanzapine 0.15 mg/kg (PARA+OLZ, n=4), median (IQR)): 6900 ng/mL
concentration at 30 min ([1]; both, brain cortex, intraperitoneal, Concentration in brain, P4 rats, 30 min after ip paracetamol 15 mg/kg + valproate 30 mg/kg (PARA+VPA, n=4), median (IQR) or individual values): 5300 ng/mL
concentration at 30 min ([1]; both, brain, CSF, 15 mg/kg, brain and CSF concentrations, monotherapy 15 mg/kg, 30 min, all ages (E19, P4, adult)): 5000 to 10000 ng/mL
concentration at 30 min ([1]; both, plasma, intraperitoneal, 15 mg/kg, Concentration in plasma, P4 rats, 30 min after ip paracetamol 15 mg/kg monotherapy (PARA, n=4), median (IQR)): 5600 ng/mL
concentration at 30 min ([1]; both, plasma, intraperitoneal, Concentration in plasma, P4 rats, 30 min after ip paracetamol 15 mg/kg + cimetidine 11 mg/kg (PARA+CIM, n=4), median (IQR)): 10600 ng/mL
concentration at 30 min ([1]; both, plasma, intraperitoneal, Concentration in plasma, P4 rats, 30 min after ip paracetamol 15 mg/kg + digoxin 0.03 mg/kg (PARA+DIG, n=4), median (IQR)): 8200 ng/mL
concentration at 30 min ([1]; both, plasma, intraperitoneal, Concentration in plasma, P4 rats, 30 min after ip paracetamol 15 mg/kg + fluvoxamine 1.5 mg/kg (PARA+FLX, n=4), median (IQR)): 6500 ng/mL
concentration at 30 min ([1]; both, plasma, intraperitoneal, Concentration in plasma, P4 rats, 30 min after ip paracetamol 15 mg/kg + lamotrigine 6 mg/kg (PARA+LTG, n=5), median (IQR)): 7200 ng/mL
concentration at 30 min ([1]; both, plasma, intraperitoneal, Concentration in plasma, P4 rats, 30 min after ip paracetamol 15 mg/kg + lithium 3.2 mg/kg (PARA+Li, n=4), median (IQR)): 4300 ng/mL
concentration at 30 min ([1]; both, plasma, intraperitoneal, Concentration in plasma, P4 rats, 30 min after ip paracetamol 15 mg/kg + olanzapine 0.15 mg/kg (PARA+OLZ, n=4), median (IQR)): 5600 ng/mL
concentration at 30 min ([1]; both, plasma, intraperitoneal, Concentration in plasma, P4 rats, 30 min after ip paracetamol 15 mg/kg + valproate 30 mg/kg (PARA+VPA, n=4), median (IQR) or individual values): 6700 ng/mL
concentration at 30 min ([1]; both, plasma, intraperitoneal, concentration in plasma, P4, monotherapy and combination therapy with any of the drugs investigated): ~5000 ng/mL
concentration at 30 min ([1]; female, CSF, intraperitoneal, 15 mg/kg, Concentration in CSF, non-pregnant adult rats, 30 min after ip paracetamol 15 mg/kg monotherapy (PARA, n=6), median (IQR)): 5300 ng/mL
concentration at 30 min ([1]; female, CSF, intraperitoneal, Concentration in CSF, non-pregnant adult rats, 30 min after ip paracetamol 15 mg/kg + cimetidine 11 mg/kg (PARA+CIM, n=3), median (IQR)): 2100 ng/mL
concentration at 30 min ([1]; female, CSF, intraperitoneal, Concentration in CSF, non-pregnant adult rats, 30 min after ip paracetamol 15 mg/kg + digoxin 0.03 mg/kg (PARA+DIG, n=3), median (IQR)): 4200 ng/mL
concentration at 30 min ([1]; female, CSF, intraperitoneal, Concentration in CSF, non-pregnant adult rats, 30 min after ip paracetamol 15 mg/kg + fluvoxamine 1.5 mg/kg (PARA+FLX, n=4), median (IQR)): 4400 ng/mL
concentration at 30 min ([1]; female, CSF, intraperitoneal, Concentration in CSF, non-pregnant adult rats, 30 min after ip paracetamol 15 mg/kg + olanzapine 0.15 mg/kg (PARA+OLZ, n=4), median (IQR)): 4200 ng/mL
concentration at 30 min ([1]; female, CSF, intraperitoneal, Concentration in CSF, non-pregnant adult rats, 30 min after ip paracetamol 15 mg/kg + valproate 30 mg/kg (PARA+VPA, n=3), median (IQR)): 4700 ng/mL
concentration at 30 min ([1]; female, brain, intraperitoneal, 15 mg/kg, Concentration in brain, non-pregnant adult rats, 30 min after ip paracetamol 15 mg/kg monotherapy (PARA, n=6), median (IQR)): 8100 ng/mL
concentration at 30 min ([1]; female, brain, intraperitoneal, Concentration in brain, non-pregnant adult rats, 30 min after ip paracetamol 15 mg/kg + cimetidine 11 mg/kg (PARA+CIM, n=3), median (IQR)): 2900 ng/mL
concentration at 30 min ([1]; female, brain, intraperitoneal, Concentration in brain, non-pregnant adult rats, 30 min after ip paracetamol 15 mg/kg + olanzapine 0.15 mg/kg (PARA+OLZ, n=4), median (IQR)): 3900 ng/mL
concentration at 30 min ([1]; female, brain, intraperitoneal, Concentration in brain, non-pregnant adult rats, 30 min after ip paracetamol 15 mg/kg + valproate 30 mg/kg (PARA+VPA, n=3), median (IQR)): 7500 ng/mL
concentration at 30 min ([1]; female, plasma, intraperitoneal, 15 mg/kg, Concentration in plasma, non-pregnant adult rats, 30 min after ip paracetamol 15 mg/kg monotherapy (PARA, n=6), median (IQR)): 8400 ng/mL
concentration at 30 min ([1]; female, plasma, intraperitoneal, Concentration in plasma, non-pregnant adult rats, 30 min after ip paracetamol 15 mg/kg + digoxin 0.03 mg/kg (PARA+DIG, n=3), median (IQR)): 4400 ng/mL
concentration at 30 min ([1]; female, plasma, intraperitoneal, Concentration in plasma, non-pregnant adult rats, 30 min after ip paracetamol 15 mg/kg + fluvoxamine 1.5 mg/kg (PARA+FLX, n=4), median (IQR)): 4600 ng/mL
concentration at 30 min ([1]; female, plasma, intraperitoneal, Concentration in plasma, non-pregnant adult rats, 30 min after ip paracetamol 15 mg/kg + olanzapine 0.15 mg/kg (PARA+OLZ, n=4), median (IQR)): 6700 ng/mL
Concentration in plasma ([1]; non-pregnant adult rats, 30 min after ip paracetamol 15 mg/kg + cimetidine 11 mg/kg (PARA+CIM, n=3), median (IQR)): 3.4 (1.0) µg/ml
Concentration in brain ([1]; non-pregnant adult rats, 30 min after ip paracetamol 15 mg/kg + digoxin 0.03 mg/kg (PARA+DIG, n=3), median (IQR)): 4.3 (1.6) µg/ml
Concentration in brain [1, 3]: 7.1 (0.7) µg/ml
Concentration in plasma [1, 3]: 7.5 (1.0) µg/ml
Concentration in plasma ([1]; non-pregnant adult rats, 30 min after ip paracetamol 15 mg/kg + valproate 30 mg/kg (PARA+VPA, n=3), median (IQR)): 7.5 (1.3) µg/ml
Structure (SMILES): CC(=O)Nc1ccc(O)cc1 [Paracetamol, reference compound]
half-life [2]: around 16 min
